# In ChEMBL document CHEMBL4840335, “Rational Design and Development of Novel CDK9 Inhibitors for the Treatment of Acute Myeloid Leukemia” (J Med Chem, 2021):
# Active and inactive are the calls of the source. The calls are words filed in the database; no cut-off is given here.
# Tests used:
# [1] = target: Cyclin-dependent kinase 2 (Homo sapiens, UniProt P24941); assay: Inhibition of CDK2 (unknown origin)
# Z-138 = assay: Antiproliferative activity against human Z138 cells assessed as reduction in cell proliferation measured after 3 to 7 days by MTS assay; assay type: functional, cell-based
# MV4-11 [2] = assay: Induction of apoptosis in human MV4-11 cells assessed as live cells at 10 nM measured after 24 hrs by annexinV-FITC/propidium iodide staining based flow cytometry (reference value: 95.14 %); assay type: functional
# [3] = target: Fibroblast growth factor receptor 2 (Homo sapiens, UniProt P21802); assay: Inhibition of FGFR2 (unknown origin)
# [4] = target: Tyrosine-protein kinase BTK (Homo sapiens, UniProt Q06187); assay: Inhibition of BTK (unknown origin)
# [5] = Tmax in ICR mouse at 20 mg/kg, po measured up to 24 hrs; assay type: ADME, organism-based; conditions: in vivo
# [6] = target: Hepatocyte growth factor receptor (Homo sapiens, UniProt P08581); assay: Inhibition of Met (unknown origin)
# MM1.S = assay: Antiproliferative activity against human MM1.S cells assessed as reduction in cell proliferation measured after 3 to 7 days by MTS assay; assay type: functional, cell-based
# [7] = target: Proto-oncogene tyrosine-protein kinase Src (Homo sapiens, UniProt P12931); assay: Inhibition of SRC (unknown origin)
# [8] = Toxicity in Nu/Nu mouse xenografted with human MV4-11 cells assessed as body weight loss at 7.5 mg/kg, po administered for 21 consecutive days relative to control; assay type: organism-based; conditions: in vivo, 504 h, time 21 day
# MV4-11 [9] = assay: Induction of apoptosis in human MV4-11 cells assessed as late apoptotic cells at 50 nM measured after 24 hrs by annexinV-FITC/propidium iodide staining based flow cytometry (reference value: 3.04 %); assay type: functional
# MV4-11 [10] = assay: Antitumor activity against human MV4-11 cells xenografted in Nu/Nu mouse assessed as inhibition of tumor growth at 7.5 mg/kg, po administered for 21 consecutive days by digital caliper method relative to control; assay type: functional; conditions: MV4-11, po, 504 h, time 21 day
# [11] = target: Proto-oncogene tyrosine-protein kinase receptor Ret (Homo sapiens, UniProt P07949); assay: Inhibition of RET (unknown origin)
# Wee1-like protein kinase = Wee1-like protein kinase (Homo sapiens, UniProt P30291); assay: Inhibition of WEE1 (unknown origin)
# [12] = target: Fibroblast growth factor receptor 1 (Homo sapiens, UniProt P11362); assay: Inhibition of FGFR1 (unknown origin)
# [13] = target: Serine/threonine-protein kinase 17B (Homo sapiens, UniProt O94768); assay: Inhibition of DRAK2 (unknown origin)
# [14] = target: Cyclin-dependent kinase 7 (Homo sapiens, UniProt P50613); assay: Inhibition of CDK7 (unknown origin)
# MV4-11 [15] = assay: Antitumor activity against human MV4-11 cells xenografted in Nu/Nu mouse assessed as relative tumor volume at 7.5 mg/kg, po administered for 21 consecutive days by digital caliper method; assay type: functional; conditions: time 22 day
# [16] = Half life in ICR mouse at 2 mg/kg, iv measured up to 24 hrs; assay type: ADME, organism-based; conditions: in vivo
# [17] = target: Serine/threonine-protein kinase PAK 1 (Homo sapiens, UniProt Q13153); assay: Inhibition of PAK1 (unknown origin)
# [18] = target: Tyrosine-protein kinase receptor TYRO3 (Homo sapiens, UniProt Q06418); assay: Inhibition of TYRO3 (unknown origin)
# [19] = target: Epidermal growth factor receptor (Homo sapiens, UniProt P00533); assay: Inhibition of EGFR (unknown origin)
# Ephrin type-A receptor 2 = Ephrin type-A receptor 2 (Homo sapiens, UniProt P29317); assay: Inhibition of EPHA2 (unknown origin)
# [20] = target: Insulin-like growth factor 1 receptor (Homo sapiens, UniProt P08069); assay: Inhibition of IGF1R (unknown origin)
# [21] = target: Receptor tyrosine-protein kinase erbB-4 (Homo sapiens, UniProt Q15303); assay: Inhibition of ErbB4 (unknown origin)
# Aurora kinase A = Aurora kinase A (Homo sapiens, UniProt O14965); assay: Inhibition of AURKA (unknown origin)
# MV4-11 [22] = assay: Induction of apoptosis in human MV4-11 cells assessed as live cells at 50 nM measured after 24 hrs by annexinV-FITC/propidium iodide staining based flow cytometry (reference value: 95.14 %); assay type: functional
# MV4-11 [23] = assay: Induction of apoptosis in human MV4-11 cells assessed as late apoptotic cells at 10 nM measured after 24 hrs by annexinV-FITC/propidium iodide staining based flow cytometry (reference value: 3.04 %); assay type: functional
# Insulin receptor = Insulin receptor (Homo sapiens, UniProt P06213); assay: Inhibition of IR (unknown origin)
# [24] = Toxicity in Nu/Nu mouse xenografted with human MV4-11 cells assessed as change in body weight at 7.5 mg/kg, po administered for 21 consecutive days and measured on day 22 (reference value: 23.9 +/- 0.7 g); assay type: organism-based; conditions: in vivo, 528 h, time 22 day
# [25] = target: Serine/threonine-protein kinase Chk1 (Homo sapiens, UniProt O14757); assay: Inhibition of CHK1 (unknown origin)
# MV4-11 [26] = assay: Induction of apoptosis in human MV4-11 cells assessed as activation of caspase-3 at 5 to 50 nM measured after 24 hrs by Western blot analysis; assay type: functional, cell-based; conditions: dose 5-50 nM
# CCRF-CEM = assay: Antiproliferative activity against human CCRF-CEM cells assessed as reduction in cell proliferation measured after 3 to 7 days by MTS assay; assay type: functional, cell-based
# [27] = AUClast in ICR mouse at 20 mg/kg, po measured up to 24 hrs; assay type: ADME, organism-based; parameters: route oral, dose 20 mg/kg, time <=24; conditions: in vivo
# MV4-11 [28] = assay: Induction of apoptosis in human MV4-11 cells assessed as early apoptotic cells at 50 nM measured after 24 hrs by annexinV-FITC/propidium iodide staining based flow cytometry (reference value: 0.79 %); assay type: functional
# MV4-11 [29] = assay: Induction of apoptosis in human MV4-11 cells assessed as downregulation of BCL2 at 1 to 10 uM measured after 12 hrs by Western blot analysis; assay type: functional, cell-based; conditions: dose 1-10 µM
# [30] = target: Tyrosine-protein kinase receptor UFO (Homo sapiens, UniProt P30530); assay: Inhibition of AXL (unknown origin)
# MV4-11 [31] = assay: Induction of apoptosis in human MV4-11 cells assessed as activation of cleaved PARP at 5 to 50 nM measured after 24 hrs by Western blot analysis; assay type: functional, cell-based; conditions: dose 5-50 nM
# OCI-Ly10 = assay: Antiproliferative activity against human OCILY10 cells assessed as reduction in cell proliferation measured after 3 to 7 days by MTS assay; assay type: functional, cell-based
# [32] = target: Platelet-derived growth factor receptor alpha (Homo sapiens, UniProt P16234); assay: Inhibition of PDGFRA (unknown origin)
# MV4-11 [33] = assay: Antiproliferative activity against human MV4-11 cells assessed as reduction in cell proliferation measured after 3 to 7 days by MTS assay; assay type: functional, cell-based
# [34] = Half life in ICR mouse at 20 mg/kg, po measured up to 24 hrs; assay type: ADME, organism-based; conditions: in vivo
# [35] = target: Receptor tyrosine-protein kinase erbB-2 (Homo sapiens, UniProt P04626); assay: Inhibition of ErbB2 (unknown origin)
# Kasumi 1 = assay: Antiproliferative activity against human Kasumi 1 cells assessed as reduction in cell proliferation measured after 3 to 7 days by MTS assay; assay type: functional, cell-based
# Sequence of Tyrosine-protein kinase BTK (Q06187 whole entry): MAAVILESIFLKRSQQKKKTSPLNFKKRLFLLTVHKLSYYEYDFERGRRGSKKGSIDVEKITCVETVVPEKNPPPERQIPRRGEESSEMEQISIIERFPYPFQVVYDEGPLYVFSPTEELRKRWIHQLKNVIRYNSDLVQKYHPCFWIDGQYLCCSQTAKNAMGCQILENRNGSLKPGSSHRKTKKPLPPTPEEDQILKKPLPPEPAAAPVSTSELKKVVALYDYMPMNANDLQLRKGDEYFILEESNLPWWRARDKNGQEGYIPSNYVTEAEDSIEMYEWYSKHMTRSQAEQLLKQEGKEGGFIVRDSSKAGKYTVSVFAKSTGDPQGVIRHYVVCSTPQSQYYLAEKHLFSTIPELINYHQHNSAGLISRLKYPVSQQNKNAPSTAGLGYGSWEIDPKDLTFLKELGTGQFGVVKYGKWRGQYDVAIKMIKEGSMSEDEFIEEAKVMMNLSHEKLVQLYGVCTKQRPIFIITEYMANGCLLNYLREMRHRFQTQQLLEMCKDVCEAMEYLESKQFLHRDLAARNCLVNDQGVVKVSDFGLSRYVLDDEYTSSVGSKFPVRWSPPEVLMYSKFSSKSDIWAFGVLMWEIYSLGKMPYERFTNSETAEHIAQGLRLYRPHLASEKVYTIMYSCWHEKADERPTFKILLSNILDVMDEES
# Sequence of Serine/threonine-protein kinase Chk1 (O14757 whole entry): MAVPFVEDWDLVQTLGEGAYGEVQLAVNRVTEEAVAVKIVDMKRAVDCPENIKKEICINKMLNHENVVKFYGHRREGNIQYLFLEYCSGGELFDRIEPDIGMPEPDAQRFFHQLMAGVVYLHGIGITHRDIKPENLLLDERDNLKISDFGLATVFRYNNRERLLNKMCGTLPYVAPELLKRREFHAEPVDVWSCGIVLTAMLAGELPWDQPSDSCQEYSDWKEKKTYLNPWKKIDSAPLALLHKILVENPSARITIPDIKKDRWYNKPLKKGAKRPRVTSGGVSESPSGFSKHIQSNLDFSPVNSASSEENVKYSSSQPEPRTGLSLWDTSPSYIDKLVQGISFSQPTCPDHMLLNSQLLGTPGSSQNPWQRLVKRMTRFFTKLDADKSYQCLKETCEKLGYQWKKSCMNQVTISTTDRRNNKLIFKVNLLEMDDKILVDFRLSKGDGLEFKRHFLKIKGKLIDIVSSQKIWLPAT
# Sequence of Receptor tyrosine-protein kinase erbB-2 (P04626 whole entry): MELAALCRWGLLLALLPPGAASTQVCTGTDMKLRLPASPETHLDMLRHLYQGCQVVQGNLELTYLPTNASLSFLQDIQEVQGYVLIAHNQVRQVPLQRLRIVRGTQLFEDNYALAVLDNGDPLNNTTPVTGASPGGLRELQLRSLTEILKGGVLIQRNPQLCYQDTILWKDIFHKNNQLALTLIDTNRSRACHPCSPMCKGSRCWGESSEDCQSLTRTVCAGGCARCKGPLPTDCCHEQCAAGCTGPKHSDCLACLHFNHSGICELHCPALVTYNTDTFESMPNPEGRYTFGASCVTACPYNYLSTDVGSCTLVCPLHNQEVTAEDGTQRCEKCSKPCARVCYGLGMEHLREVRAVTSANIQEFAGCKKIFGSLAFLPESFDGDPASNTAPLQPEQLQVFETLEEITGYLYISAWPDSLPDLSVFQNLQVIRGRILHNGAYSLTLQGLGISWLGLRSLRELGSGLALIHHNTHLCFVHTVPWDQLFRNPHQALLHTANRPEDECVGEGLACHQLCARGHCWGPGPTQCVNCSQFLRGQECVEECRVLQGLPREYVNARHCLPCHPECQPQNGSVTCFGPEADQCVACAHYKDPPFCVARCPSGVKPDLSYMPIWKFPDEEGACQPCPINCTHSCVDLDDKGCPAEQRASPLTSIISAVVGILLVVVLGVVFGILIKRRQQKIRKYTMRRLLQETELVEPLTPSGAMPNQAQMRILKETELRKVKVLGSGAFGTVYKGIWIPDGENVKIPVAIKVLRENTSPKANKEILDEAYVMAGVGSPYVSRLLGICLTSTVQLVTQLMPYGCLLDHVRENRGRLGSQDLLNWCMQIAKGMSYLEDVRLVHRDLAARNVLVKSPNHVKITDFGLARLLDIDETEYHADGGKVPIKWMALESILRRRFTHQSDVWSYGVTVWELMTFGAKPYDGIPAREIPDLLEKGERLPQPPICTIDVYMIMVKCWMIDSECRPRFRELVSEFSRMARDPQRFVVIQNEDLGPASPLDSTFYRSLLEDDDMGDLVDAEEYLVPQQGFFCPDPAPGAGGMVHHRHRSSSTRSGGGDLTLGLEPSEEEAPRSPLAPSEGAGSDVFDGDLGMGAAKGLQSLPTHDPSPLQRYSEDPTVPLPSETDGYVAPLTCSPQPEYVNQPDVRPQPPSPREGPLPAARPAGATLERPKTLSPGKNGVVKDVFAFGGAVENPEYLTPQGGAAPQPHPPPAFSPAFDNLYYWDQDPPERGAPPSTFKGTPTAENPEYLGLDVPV
# Sequence of Insulin receptor (P06213 28-758 limits assumed): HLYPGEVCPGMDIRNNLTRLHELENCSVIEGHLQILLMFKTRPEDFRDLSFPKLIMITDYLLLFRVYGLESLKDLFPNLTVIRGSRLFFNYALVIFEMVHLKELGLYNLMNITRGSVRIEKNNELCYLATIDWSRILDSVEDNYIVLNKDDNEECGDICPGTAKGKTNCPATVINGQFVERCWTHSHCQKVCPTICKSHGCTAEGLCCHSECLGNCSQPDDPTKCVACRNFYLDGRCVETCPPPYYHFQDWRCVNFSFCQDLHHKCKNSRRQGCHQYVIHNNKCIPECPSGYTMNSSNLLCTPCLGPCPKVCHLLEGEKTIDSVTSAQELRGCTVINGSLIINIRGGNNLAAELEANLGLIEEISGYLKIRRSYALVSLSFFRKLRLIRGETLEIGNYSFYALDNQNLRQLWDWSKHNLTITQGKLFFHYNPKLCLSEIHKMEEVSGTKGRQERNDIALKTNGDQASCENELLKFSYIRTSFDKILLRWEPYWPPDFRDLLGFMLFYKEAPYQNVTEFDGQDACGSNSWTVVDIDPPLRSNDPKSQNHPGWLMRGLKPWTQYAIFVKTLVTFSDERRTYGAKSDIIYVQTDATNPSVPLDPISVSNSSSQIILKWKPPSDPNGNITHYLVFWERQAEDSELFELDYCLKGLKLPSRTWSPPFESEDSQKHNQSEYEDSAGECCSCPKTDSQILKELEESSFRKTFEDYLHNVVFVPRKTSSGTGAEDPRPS
# Sequence of Insulin receptor (P06213 763-1382 limits assumed): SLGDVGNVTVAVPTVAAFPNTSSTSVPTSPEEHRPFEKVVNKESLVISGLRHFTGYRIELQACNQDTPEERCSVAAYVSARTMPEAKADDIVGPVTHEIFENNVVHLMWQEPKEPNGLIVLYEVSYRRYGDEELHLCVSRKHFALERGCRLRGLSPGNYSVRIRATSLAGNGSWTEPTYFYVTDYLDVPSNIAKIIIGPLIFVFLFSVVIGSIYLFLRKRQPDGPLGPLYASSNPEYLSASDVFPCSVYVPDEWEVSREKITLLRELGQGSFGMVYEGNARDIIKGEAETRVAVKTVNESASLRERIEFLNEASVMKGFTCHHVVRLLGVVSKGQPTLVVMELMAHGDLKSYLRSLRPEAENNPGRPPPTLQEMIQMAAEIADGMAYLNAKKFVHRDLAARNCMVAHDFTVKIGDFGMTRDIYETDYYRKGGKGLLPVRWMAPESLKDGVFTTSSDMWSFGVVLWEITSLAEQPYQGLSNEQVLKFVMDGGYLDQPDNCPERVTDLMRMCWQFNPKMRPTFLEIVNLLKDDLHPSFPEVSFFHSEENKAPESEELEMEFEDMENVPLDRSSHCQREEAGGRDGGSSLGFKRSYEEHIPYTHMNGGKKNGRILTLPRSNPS
# Sequence of Platelet-derived growth factor receptor alpha (P16234 whole entry): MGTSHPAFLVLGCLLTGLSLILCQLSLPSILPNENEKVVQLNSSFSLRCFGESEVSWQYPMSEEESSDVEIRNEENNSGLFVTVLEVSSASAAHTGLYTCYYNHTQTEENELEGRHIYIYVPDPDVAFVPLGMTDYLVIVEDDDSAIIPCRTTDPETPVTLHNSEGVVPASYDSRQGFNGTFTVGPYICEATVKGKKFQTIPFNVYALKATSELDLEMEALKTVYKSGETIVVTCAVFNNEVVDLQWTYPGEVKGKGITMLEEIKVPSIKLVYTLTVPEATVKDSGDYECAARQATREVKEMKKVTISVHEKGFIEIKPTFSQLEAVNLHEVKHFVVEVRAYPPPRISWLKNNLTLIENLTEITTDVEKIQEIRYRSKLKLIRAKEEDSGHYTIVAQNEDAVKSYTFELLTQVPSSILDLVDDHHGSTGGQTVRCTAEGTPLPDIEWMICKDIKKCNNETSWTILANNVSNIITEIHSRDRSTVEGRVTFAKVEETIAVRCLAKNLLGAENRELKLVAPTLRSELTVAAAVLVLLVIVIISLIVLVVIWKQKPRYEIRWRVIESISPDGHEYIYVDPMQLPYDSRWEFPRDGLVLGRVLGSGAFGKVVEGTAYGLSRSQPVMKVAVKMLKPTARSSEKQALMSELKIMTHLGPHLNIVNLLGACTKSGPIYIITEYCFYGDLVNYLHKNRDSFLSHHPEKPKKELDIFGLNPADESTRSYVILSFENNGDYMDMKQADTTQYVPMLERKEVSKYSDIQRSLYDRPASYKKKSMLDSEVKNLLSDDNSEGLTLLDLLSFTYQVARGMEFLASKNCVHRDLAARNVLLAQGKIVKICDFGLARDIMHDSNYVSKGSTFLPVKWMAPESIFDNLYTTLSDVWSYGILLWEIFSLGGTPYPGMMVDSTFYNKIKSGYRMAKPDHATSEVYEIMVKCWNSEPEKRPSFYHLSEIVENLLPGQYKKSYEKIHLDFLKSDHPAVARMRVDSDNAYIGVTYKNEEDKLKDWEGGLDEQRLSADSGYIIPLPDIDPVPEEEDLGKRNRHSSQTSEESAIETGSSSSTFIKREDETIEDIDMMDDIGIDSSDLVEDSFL
compound,measurement,setting,value
Cc1n[nH]c2ccc(-c3cc(N[C@@H](CO)c4ccccc4)cnc3Cl)cc12,IC50,[1],164 nM
same,IC50,Z-138,46 nM
same,Activity,MV4-11 [2],94.45%
same,IC50,[3],> 1000 nM
same,IC50,[4],> 1000 nM
same,Tmax,[5],4.98 min
same,IC50,[6],> 1000 nM
same,IC50,MM1.S,13 nM
same,IC50,[7],> 1000 nM
same,Activity,[8],< 10%
same,Activity,MV4-11 [9],16.89%
same,inhibition in vivo at 7.5 mg/kg,MV4-11 [10],77.4%
same,IC50,[11],> 1000 nM
same,IC50,Wee1-like protein kinase,> 1000 nM
same,IC50,[12],> 1000 nM
same,IC50,[13],> 1000 nM
same,IC50,[14],> 1000 nM
same,Activity,MV4-11 [15],2.86
same,half-life,[16],109 min
same,IC50,[17],> 1000 nM
same,IC50,[18],> 1000 nM
same,IC50,[19],> 1000 nM
same,IC50,Ephrin type-A receptor 2,> 1000 nM
same,IC50,[20],> 1000 nM
same,IC50,[21],> 1000 nM
same,IC50,Aurora kinase A,> 1000 nM
same,Activity,MV4-11 [22],76.29%
same,Activity,MV4-11 [23],2.95%
same,IC50,Insulin receptor,> 1000 nM
same,Activity,[24],22.1 g
same,IC50,[25],> 1000 nM
same,Activity,MV4-11 [26],Active
same,IC50,CCRF-CEM,2.1 nM
same,AUC(0-t) at 24 h,[27],1760 ng·h/mL
same,Activity,MV4-11 [28],3.23%
same,Activity,MV4-11 [29],inactive
same,IC50,[30],> 1000 nM
same,Activity,MV4-11 [31],Active
same,IC50,OCI-Ly10,3.2 nM
same,IC50,[32],> 1000 nM
same,IC50,MV4-11 [33],1.6 nM
same,half-life,[34],481 min
same,IC50,[35],> 1000 nM
same,IC50,Kasumi 1,21 nM
